Test results: US7811352B2, “Fertilizer compositions and methods of using” (priority 2005, dated 2010)

Assays:
Type in all cases: in vivo
[1] = test system: rhizomatous tall fescue grass; test: Turfgrass quality and color ratings, rhizomatous tall fescue (Example 14); settings: scale of 1-10
Description: (§1) In this Example, the effect of a fertilizer comprising lysine on turfgrass growth was examined. The effects of lysine (HCl) and LIQUID LYSINE on a common type of lawn quality turfgrass (rhizomatous tall fescue) were compared with those of CoRoN® brand fertilizer.
(§2) Six fertilizer treatments comprising two concentrations of each fertilizer composition (Coron® (N—P—K, 14-2-34), LIQUID LYSINE (N—P—K, 10-2-1), and lysine (HCl) (N—P—K, 15-2-1)) were prepared and applied to 3 replications of rhizomatous tall fescue grass. The solutions of lysine (HCl) (dissolved in 0.5 gal water), LIQUID LYSINE and Coran were applied using a Birchmeier backpack sprayer with a 5 foot spray pattern, Each fertilizer treatment was applied in either a 3-split application with an application rate of 2 lb N/1000 ft^2 or a 6-split application with an application rate of 1 lb N/1000 ft^2. Plot size was 9 ft×9 ft set up as a randomized complete block. Irrigation was applied following application. Plots were rated for turfgrass quality and color (scale of 1-10 where 10=dark green turf, 1 =dead/brown turf, and 6=minimally acceptable turf and phytotoxicity (% burn) throughout the study period and compared with two untreated plots. Quality, color, and phytotoxicity were measured on day 7, day 14, day 21, day 28, day 35, and day 42 after application. All data was subject to statistical analysis and significant means were determined. Average turfgrass quality ratings for the treatments are presented in Table 21. Average turfgrass color ratings are presented in Table 22. Average phytotoxicity ratings (as % burn) are presented in Table 23.

[2] = test system: rhizomatous tall fescue grass; test: Phytotoxicity (% burn), rhizomatous tall fescue (Example 14)
Description: as §1, §2

Bermuda grass = test: Turfgrass quality and color ratings, Bermuda grass fairway (Example 10); design: key: 1-10; 10 = dark green turf, 1 = dead/brown, 6 = minimally acceptable; settings: scale 1-10
Source text: In this Example, the effect of a fertilizer comprising lysine on warm season turfgrass growth was examined. The effects of lysine (HCl) and LIQUID LYSINE on a common type of golf course fairway quality turfgrass (Bermuda grass) were compared with those of urea and Milorganite.
Fifteen fertilizer treatments comprising three concentrations of each fertilizer composition (Milorganite (N—P—K, 6-2-0), urea (N—P—K, 46-0-0), LIQUID LYSINE (N—P—K, 10-2-1), and both granular and aqueous lysine (HCl) (N—P—K, 15-2-1)) were prepared and applied to 4 replications of Bermuda grass. The aqueous lysine (HCl) was dissolved in water prior to application. Each fertilizer treatment was applied in concentrations of 0.5 lb N/1000 ft^2/month, 1.0 lb N/1000 ft^2/month and 3.0 lb N/1000 ft^2/month. The urea, LIQUID LYSINE and aqueous lysine (HCl) were applied as foliar liquids, while Milorganite and granular lysine (HCl) were applied as granular fertilizers Plot size was 1 m×2 m set up as a randomized complete block. Plots were mowed at 0.5 inches before fertilizer application. Irrigation (0.15 inch) was applied following application. Plots were rated for turfgrass quality and color (scale of 1-10 where 10=dark green turf, 1=dead/brown turf, and 6=minimally acceptable turf) and phytotoxicity (scale of 0-5, where 5=worst, and 2=minimally objectionable) throughout the study period. Quality, color, and phytotoxicity were measured on 2 days before application (day −2) and day 2, day 5, day 15 and day 21 after application. All data was subject to statistical analysis and significant means were determined. Average turfgrass quality ratings for the treatments are presented in Table 9 and the quality results for application rates of 1.0 lb N/1000 ft^2/month are graphically presented in FIG. 4.

[3] = 3-split, 2.0 lb N/1000 ft^2, Day 7
[4] = 3-split, 2.0 lb N/1000 ft^2, Day 14
[5] = 3-split, 2.0 lb N/1000 ft^2, Day 21
[6] = 3-split, 2.0 lb N/1000 ft^2, Day 28
[7] = 3-split, 2.0 lb N/1000 ft^2, Day 35
[8] = 6-split, 1.0 lb N/1000 ft^2, Day 7
[9] = 6-split, 1.0 lb N/1000 ft^2, Day 14
[10] = 6-split, 1.0 lb N/1000 ft^2, Day 21
[11] = 6-split, 1.0 lb N/1000 ft^2, Day 28
[12] = 6-split, 1.0 lb N/1000 ft^2, Day 35
[13] = Monthly Rate 0.5 lbs N/1000 ft^2, Day 2
[14] = Monthly Rate 0.5 lbs N/1000 ft^2, Day 5
[15] = Monthly Rate 0.5 lbs N/1000 ft^2, Day 15
[16] = Monthly Rate 0.5 lbs N/1000 ft^2, Day 21
[17] = Monthly Rate 0.5 lbs N/1000 ft^2, Day −2 (before application)
[18] = Monthly Rate 1.0 lbs N/1000 ft^2, Day 2
[19] = Monthly Rate 1.0 lbs N/1000 ft^2, Day 5
[20] = Monthly Rate 1.0 lbs N/1000 ft^2, Day 15
[21] = Monthly Rate 1.0 lbs N/1000 ft^2, Day 21
[22] = Monthly Rate 1.0 lbs N/1000 ft^2, Day −2 (before application)
[23] = Monthly Rate 3.0 lbs N/1000 ft^2, Day 2
[24] = Monthly Rate 3.0 lbs N/1000 ft^2, Day 5
[25] = Monthly Rate 3.0 lbs N/1000 ft^2, Day 15
[26] = Monthly Rate 3.0 lbs N/1000 ft^2, Day 21
[27] = Monthly Rate 3.0 lbs N/1000 ft^2, Day −2 (before application)

Cl.NCCCC[C@H](N)C(=O)O [Lys (HCl) 15% N, L-lysine monohydrochloride]
Color Ratings - Tall fescue grass [1, 3]: 5.0 days | Quality Ratings - Tall fescue grass [1, 3]: 5.7c | Color Ratings - Tall fescue grass [1, 4]: 6.0b | Quality Ratings - Tall fescue grass [1, 4]: 7.0b | Color Ratings - Tall fescue grass [1, 5]: 7.0bc | Quality Ratings - Tall fescue grass [1, 5]: 7.0b | Color Ratings - Tall fescue grass [1, 6]: 8.0a | Quality Ratings - Tall fescue grass [1, 6]: 8.0a | Color Ratings - Tall fescue grass [1, 7]: 8.0a | Quality Ratings - Tall fescue grass [1, 7]: 8.0a | Color Ratings - Tall fescue grass [1, 8]: 6.0c | Quality Ratings - Tall fescue grass [1, 8]: 6.0c | Color Ratings - Tall fescue grass [1, 9]: 7.0a | Quality Ratings - Tall fescue grass [1, 9]: 7.0b | Color Ratings - Tall fescue grass [1, 10]: 7.0bc | Quality Ratings - Tall fescue grass [1, 10]: 7.7a | Color Ratings - Tall fescue grass [1, 11]: 8.0a | Quality Ratings - Tall fescue grass [1, 11]: 8.0a | Color Ratings - Tall fescue grass [1, 12]: 8.0a | Quality Ratings - Tall fescue grass [1, 12]: 8.0a | Phytotoxicity (% Burn) - Tall fescue grass [2, 3]: 15.0b % | Phytotoxicity (% Burn) - Tall fescue grass [2, 4]: 6.7b % | Phytotoxicity (% Burn) - Tall fescue grass [2, 5]: 1.7b % | Phytotoxicity (% Burn) - Tall fescue grass [2, 6]: 0.0a % | Phytotoxicity (% Burn) - Tall fescue grass [2, 7]: 0.0a % | Phytotoxicity (% Burn) - Tall fescue grass [2, 8]: 10.0c % | Phytotoxicity (% Burn) - Tall fescue grass [2, 9]: 1.7bc % | Phytotoxicity (% Burn) - Tall fescue grass [2, 10]: 0.0b % | Phytotoxicity (% Burn) - Tall fescue grass [2, 11]: 0.0a % | Phytotoxicity (% Burn) - Tall fescue grass [2, 12]: 0.0a %

NC(N)=O [Urea, urea, reference compound]
Color Ratings - Bermuda Grass (Bermuda grass; [13]): 7.4 | Quality Ratings - Bermuda Grass (Bermuda grass; [13]): 7.5ab | Color Ratings - Bermuda Grass (Bermuda grass; [14]): 7.6efg | Quality Ratings - Bermuda Grass (Bermuda grass; [14]): 7.5cd | Color Ratings - Bermuda Grass (Bermuda grass; [15]): 7.4de | Quality Ratings - Bermuda Grass (Bermuda grass; [15]): 7.5de | Color Ratings - Bermuda Grass (Bermuda grass; [16]): 7.6cd | Quality Ratings - Bermuda Grass (Bermuda grass; [16]): 7.5f | Color Ratings - Bermuda Grass (Bermuda grass; [17]): 6.5 | Quality Ratings - Bermuda Grass (Bermuda grass; [17]): 6.3 | Color Ratings - Bermuda Grass (Bermuda grass; [18]): 7.6 | Quality Ratings - Bermuda Grass (Bermuda grass; [18]): 7.5ab | Color Ratings - Bermuda Grass (Bermuda grass; [19]): 8.0def | Quality Ratings - Bermuda Grass (Bermuda grass; [19]): 7.9abc | Color Ratings - Bermuda Grass (Bermuda grass; [20]): 7.3de | Quality Ratings - Bermuda Grass (Bermuda grass; [20]): 7.6de | Color Ratings - Bermuda Grass (Bermuda grass; [21]): 7.6cd | Quality Ratings - Bermuda Grass (Bermuda grass; [21]): 7.6ef | Color Ratings - Bermuda Grass (Bermuda grass; [22]): 6.5 | Quality Ratings - Bermuda Grass (Bermuda grass; [22]): 6.3 | Color Ratings - Bermuda Grass (Bermuda grass; [23]): 8.0 | Quality Ratings - Bermuda Grass (Bermuda grass; [23]): 8.1a | Color Ratings - Bermuda Grass (Bermuda grass; [24]): 8.8ab | Quality Ratings - Bermuda Grass (Bermuda grass; [24]): 8.3ab | Color Ratings - Bermuda Grass (Bermuda grass; [25]): 7.5cde | Quality Ratings - Bermuda Grass (Bermuda grass; [25]): 7.9de | Color Ratings - Bermuda Grass (Bermuda grass; [26]): 7.9bcd | Quality Ratings - Bermuda Grass (Bermuda grass; [26]): 7.8def | Color Ratings - Bermuda Grass (Bermuda grass; [27]): 6.4 | Quality Ratings - Bermuda Grass (Bermuda grass; [27]): 6.1
